US20060040871A1, “Bacterial transforming agent” (priority 2003, published 2006)

How the values were obtained:
[1] = tested on: MRSA; assay: MIC of methicillin for MRSA isolates grown with glycine or GBE (Table 1); type: cell-based, Staphylococcus aureus
[2] = tested on: MRSA; type: cell-based, Staphylococcus aureus; conditions: 1% human plasma; approximation from Table 3
From the text: Stored frozen plasma was pooled from five subjects.
Human plasma may bind or otherwise inactivate foreign substances and good activity in plasma is indicative of good in vivo activity.

NCC(=O)O [Glycine, glycine]
0.12 µg/mL: MIC of methicillin ([1]; NCTC 12493, glycine 0.02M (0.15%))
about 75%: reduction in activity in human plasma [2]
2 µg/mL: MIC of methicillin ([1]; L272, glycine 0.2M (1.5%)) | MIC of methicillin ([1]; L279, glycine 0.2M (1.5%)) | MIC of methicillin ([1]; L284, glycine 0.2M (1.5%))
64 µg/mL: MIC of methicillin ([1]; L265, glycine 0.02M (0.15%)) | MIC of methicillin ([1]; L266, glycine 0.02M (0.15%)) | MIC of methicillin ([1]; L278, glycine 0.02M (0.15%)) | MIC of methicillin ([1]; L279, glycine 0.02M (0.15%))
50%: strains tested achieving the target MIC ([1]; 0.2 M glycine, said of Table 1)
32 µg/mL: MIC of methicillin ([1]; CD40 (EMRSA-1), glycine 0.02M (0.15%)) | MIC of methicillin ([1]; DS09 (EMRSA-1), glycine 0.02M (0.15%)) | MIC of methicillin ([1]; E15-97 (EMRSA-15), glycine 0.02M (0.15%)) | MIC of methicillin ([1]; E16-96 (EMRSA-16), glycine 0.02M (0.15%)) | MIC of methicillin ([1]; JF1-32 (EMRSA-1), glycine 0.02M (0.15%)) | MIC of methicillin ([1]; L267, glycine 0.02M (0.15%)) | MIC of methicillin ([1]; L268, glycine 0.02M (0.15%)) | MIC of methicillin ([1]; L275, glycine 0.02M (0.15%)) | MIC of methicillin ([1]; L281, glycine 0.02M (0.15%)) | MIC of methicillin ([1]; L282, glycine 0.02M (0.15%)) | MIC of methicillin ([1]; L283, glycine 0.02M (0.15%)) | MIC of methicillin ([1]; L284, glycine 0.02M (0.15%)) | MIC of methicillin ([1]; L285, glycine 0.02M (0.15%)) | MIC of methicillin ([1]; L286, glycine 0.02M (0.15%)) | MIC of methicillin ([1]; L287, glycine 0.02M (0.15%)) | MIC of methicillin ([1]; L288, glycine 0.02M (0.15%)) | MIC of methicillin ([1]; L289, glycine 0.02M (0.15%)) | MIC of methicillin ([1]; L290, glycine 0.02M (0.15%)) | MIC of methicillin ([1]; L291, glycine 0.02M (0.15%)) | MIC of methicillin ([1]; L292, glycine 0.02M (0.15%)) | MIC of methicillin ([1]; L293, glycine 0.02M (0.15%)) | MIC of methicillin ([1]; L294, glycine 0.02M (0.15%)) | MIC of methicillin ([1]; MC01 (EMRSA-1), glycine 0.02M (0.15%)) | MIC of methicillin ([1]; PS3-32 (EMRSA-1), glycine 0.02M (0.15%)) | MIC of methicillin ([1]; SN31 (EMRSA-1), glycine 0.02M (0.15%)) | MIC of methicillin ([1]; ST11 (EMRSA-1), glycine 0.02M (0.15%)) | MIC of methicillin ([1]; SW2-32 (EMRSA-1), glycine 0.02M (0.15%))
4 µg/mL: MIC of methicillin ([1]; CD40 (EMRSA-1), glycine 0.2M (1.5%)) | MIC of methicillin ([1]; DS09 (EMRSA-1), glycine 0.2M (1.5%)) | MIC of methicillin ([1]; E15-97 (EMRSA-15), glycine 0.2M (1.5%)) | MIC of methicillin ([1]; E16-96 (EMRSA-16), glycine 0.2M (1.5%)) | MIC of methicillin ([1]; JF1-32 (EMRSA-1), glycine 0.2M (1.5%)) | MIC of methicillin ([1]; L269, glycine 0.2M (1.5%)) | MIC of methicillin ([1]; L270, glycine 0.2M (1.5%)) | MIC of methicillin ([1]; L271, glycine 0.2M (1.5%)) | MIC of methicillin ([1]; L273, glycine 0.2M (1.5%)) | MIC of methicillin ([1]; L274, glycine 0.2M (1.5%)) | MIC of methicillin ([1]; L276, glycine 0.2M (1.5%)) | MIC of methicillin ([1]; L277, glycine 0.2M (1.5%)) | MIC of methicillin ([1]; L280, glycine 0.2M (1.5%)) | MIC of methicillin ([1]; L281, glycine 0.2M (1.5%)) | MIC of methicillin ([1]; L282, glycine 0.2M (1.5%)) | MIC of methicillin ([1]; L283, glycine 0.2M (1.5%)) | MIC of methicillin ([1]; L285, glycine 0.2M (1.5%)) | MIC of methicillin ([1]; L286, glycine 0.2M (1.5%)) | MIC of methicillin ([1]; L287, glycine 0.2M (1.5%)) | MIC of methicillin ([1]; L288, glycine 0.2M (1.5%)) | MIC of methicillin ([1]; L289, glycine 0.2M (1.5%)) | MIC of methicillin ([1]; L290, glycine 0.2M (1.5%)) | MIC of methicillin ([1]; L291, glycine 0.2M (1.5%)) | MIC of methicillin ([1]; L292, glycine 0.2M (1.5%)) | MIC of methicillin ([1]; L293, glycine 0.2M (1.5%)) | MIC of methicillin ([1]; L294, glycine 0.2M (1.5%)) | MIC of methicillin ([1]; MC01 (EMRSA-1), glycine 0.2M (1.5%)) | MIC of methicillin ([1]; PS3-32 (EMRSA-1), glycine 0.2M (1.5%)) | MIC of methicillin ([1]; SN31 (EMRSA-1), glycine 0.2M (1.5%)) | MIC of methicillin ([1]; ST11 (EMRSA-1), glycine 0.2M (1.5%)) | MIC of methicillin ([1]; SW2-32 (EMRSA-1), glycine 0.2M (1.5%))
0.06 µg/mL: MIC of methicillin ([1]; NCTC 12493, glycine 0.2M (1.5%))
8 µg/mL: MIC of methicillin ([1]; L265, glycine 0.2M (1.5%)) | MIC of methicillin ([1]; L266, glycine 0.2M (1.5%)) | MIC of methicillin ([1]; L267, glycine 0.2M (1.5%)) | MIC of methicillin ([1]; L268, glycine 0.2M (1.5%)) | MIC of methicillin ([1]; L270, glycine 0.02M (0.15%)) | MIC of methicillin ([1]; L271, glycine 0.02M (0.15%)) | MIC of methicillin ([1]; L273, glycine 0.02M (0.15%)) | MIC of methicillin ([1]; L275, glycine 0.2M (1.5%)) | MIC of methicillin ([1]; L277, glycine 0.02M (0.15%))
16 µg/mL: MIC of methicillin ([1]; L269, glycine 0.02M (0.15%)) | MIC of methicillin ([1]; L272, glycine 0.02M (0.15%)) | MIC of methicillin ([1]; L274, glycine 0.02M (0.15%)) | MIC of methicillin ([1]; L276, glycine 0.02M (0.15%)) | MIC of methicillin ([1]; L278, glycine 0.2M (1.5%)) | MIC of methicillin ([1]; L280, glycine 0.02M (0.15%))
